Measurements from ChEMBL document CHEMBL4814010 (Bioorg Med Chem Lett, 2021).
≈ marks a conversion by molar mass, not a printed value.

Key:
[1] = Lipophilicity, log D of compound by chromatographic method; format: physicochemical
[2] = Kinetic solubility of compound; format: physicochemical; conditions: read-out: Kinetic_solubility
[3] = Corrector activity of Z variant alpha1-antitrypsin misfolding (unknown origin) assessed as inhibition of Z variant alpha1-antitrypsin polymerisation by TR-FRET assay; set-up: species or system Homo sapiens
[4] = Metabolic stability in human hepatocytes assessed as intrinsic clearance measured per gm of tissue; format: ADME, cell-based, Hepatocyte
[5] = Corrector activity of Z variant alpha1-antitrypsin misfolding (unknown origin) expressed in CHO cells assessed as inhibition of Z variant alpha1-antitrypsin polymerisation; format: cell-based, Homo sapiens
[6] = Elimination half life in Wistar Han rat at 1 mg/kg, iv; format: ADME, organism-based; conditions: in vivo, read-out: beta t1/2 (converted)
[7] = Corrector activity of Z variant alpha1-antitrypsin misfolding (unknown origin) expressed in CHO cells assessed as inhibition of Z variant alpha1-antitrypsin polymerisation by measuring increase in Z alpha1 antitrypsin secretion; format: cell-based
[8] = Volume of distribution in Wistar Han rat at 1 mg/kg, iv; format: ADME, organism-based; conditions: in vivo
[9] = Clearance in Wistar Han rat blood at 1 mg/kg, iv; format: ADME, organism-based
[10] = Binding affinity to Z variant alpha1-antitrypsin (unknown origin) by competition binding assay; set-up: species or system Homo sapiens
[11] = target: Albumin (Homo sapiens, UniProt P02768); test: Binding affinity to human serum albumin; format: ADME; conditions: isolated protein
[12] = Protein binding in human blood; format: ADME, tissue-based; conditions: read-out: PB
[13] = Protein binding in rat plasma; format: ADME, cell-free; conditions: read-out: PPB (converted)
[14] = Protein binding in human plasma; format: ADME, cell-free; conditions: read-out: PPB
[15] = Clearance in rat hepatocytes measured per gm of tissue; format: ADME, cell-based, Hepatocyte

Albumin, sequence (P02768 whole entry): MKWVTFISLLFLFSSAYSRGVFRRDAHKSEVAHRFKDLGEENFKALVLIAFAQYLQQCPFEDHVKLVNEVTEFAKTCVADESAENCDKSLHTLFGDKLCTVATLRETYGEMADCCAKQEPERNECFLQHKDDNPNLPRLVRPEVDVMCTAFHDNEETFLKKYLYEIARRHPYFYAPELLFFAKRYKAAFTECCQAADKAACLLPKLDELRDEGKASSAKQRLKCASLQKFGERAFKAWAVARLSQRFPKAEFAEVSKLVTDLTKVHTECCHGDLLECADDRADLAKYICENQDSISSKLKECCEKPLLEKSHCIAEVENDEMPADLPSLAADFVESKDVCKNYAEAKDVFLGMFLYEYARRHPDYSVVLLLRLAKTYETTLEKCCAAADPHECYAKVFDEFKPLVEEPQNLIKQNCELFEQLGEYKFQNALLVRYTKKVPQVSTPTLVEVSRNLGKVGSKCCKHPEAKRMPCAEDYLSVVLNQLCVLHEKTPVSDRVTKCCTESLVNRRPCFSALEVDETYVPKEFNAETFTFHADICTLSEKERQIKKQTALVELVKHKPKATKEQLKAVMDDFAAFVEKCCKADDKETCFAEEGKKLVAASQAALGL

chromatographic logD [1]	solubility kinetic [2] [µM]	pIC50 [3]	CLH [4] [mL/min/g]	pIC50 [5]	Structure (SMILES)	also measured
3.6	≥ 356	8.1	0.4	5.7	CCC[C@@H](NC(=O)c1cccc2c1CC(=O)N2)[C@@H](O)c1ccccc1Cl	–
3.9	≥ 314	8.1	0.9	5.9	CCC[C@@H](NC(=O)c1ccnc2c1CC(=O)N2)[C@@H](O)c1cccc(Cl)c1C	–
3.4	≥ 227	7.4	–	4.2	CCC[C@@H](NC(=O)c1cncc2[nH]c(=O)[nH]c12)[C@@H](O)c1cccc(Cl)c1C	–
3.4	≥ 395	8.3	0.3	5.6	CCC[C@@H](NC(=O)c1cccc2c1CC(=O)N2)[C@@H](O)c1ccccc1C	–
–	–	5.5	–	–	CCC[C@@H](NC(=O)c1ccc2cc[nH]c2c1)[C@H](O)c1ccccc1	–
5.2	128 (≈ 49.5 µg/mL)	8.6	3.7	6.3	CCC[C@@H](NC(=O)c1cccc2c1NC(=O)C2)[C@@H](O)c1cccc(Cl)c1C	–
3.6	19 (≈ 6.7 µg/mL)	8.1	–	5.7	CCC[C@@H](NC(=O)c1cccc2c1CC(=O)N2)[C@@H](O)c1cccc(C)c1	–
–	–	4.1	–	–	CCC[C@H](NC(=O)c1ccc2cc[nH]c2c1)[C@@H](O)c1ccccc1	–
5.2	233 (≈ 90.6 µg/mL)	8.2	–	5.1	CCC[C@@H](NC(=O)c1cccc2oc(=O)[nH]c12)[C@@H](O)c1cccc(Cl)c1C	–
3.7	52 (≈ 19.4 µg/mL)	8.4	–	6	CCC[C@@H](NC(=O)c1cccc2c1CC(=O)N2)[C@@H](O)c1cccc(Cl)c1	–
4.3	≥ 450	8.6	0.4	6.7	CCC[C@@H](NC(=O)c1cccc2c1CC(=O)N2)[C@@H](O)c1cccc(Cl)c1C	–

Second part, the molecule before the results:

Structure (SMILES)	chromatographic logD [1]	solubility kinetic [2] [µM]	pIC50 [3]	CLH [4] [mL/min/g]	pIC50 [5]	also measured
CCC[C@@H](NC(=O)c1cccc2c1CC(=O)N2)[C@@H](O)c1ccccc1C(F)(F)F	3.7	≥ 420	7.3	0.2	4.9	–
CCC[C@@H](NC(=O)c1ccc2cc[nH]c2c1)[C@@H](O)c1ccccc1	4.3	≥ 439	6.5	–	4.5	–
CCC[C@@H](NC(=O)c1cccc2c1CC(=O)N2)[C@@H](O)c1ncccc1C	3.2	≥ 392	6.6	–	4.4	–
CCC[C@H](NC(=O)c1ccc2cc[nH]c2c1)[C@H](O)c1ccccc1	–	–	< 4	–	–	–
CCCC(NC(=O)c1ccc2cc[nH]c2c1)C(O)c1ccccc1 (stereo unspecified)	–	–	6.5	–	–	IC50 [3]: 300 nM
CCC[C@@H](NC(=O)c1cccc2c1CC(=O)N2)[C@@H](O)c1cccc(F)c1C	3.8	≥ 528	8.3	0.3	6.3	half-life [6]: 30 min; EC50 [7]: 631 nM; Vd [8]: 2.3 L/kg; clearance [9]: 69 mL/min/kg; pKd [10]: 8.5; Activity [11]: 84%; fraction unbound [12]: < 0.02; fraction unbound [13]: 0.19; fraction unbound [14]: < 0.02; CLH [15]: 7.4 mL/min/g
CCC[C@@H](NC(=O)c1cccc2c1CC(=O)N2)[C@@H](O)c1cccc(F)c1Cl	3.7	≥ 504	8.2	< 0.4	6.2	–
CCC[C@@H](NC(=O)c1cccc2[nH]c(=O)oc12)[C@@H](O)c1cccc(Cl)c1C	5.1	326 (≈ 127 µg/mL)	8	–	5.4	–
CCC[C@@H](NC(=O)c1ccc2oc(=O)[nH]c2c1)[C@@H](O)c1ccccc1	3.2	299 (≈ 102 µg/mL)	6.3	–	< 4	–
CCC[C@@H](NC(=O)c1cccc2[nH]c(=O)ccc12)[C@@H](O)c1cccc(Cl)c1C	3.7	309 (≈ 123 µg/mL)	7.7	–	4.8	–
CCC[C@@H](NC(=O)c1ccc2oc(=O)[nH]c2c1)[C@@H](O)c1ccccc1C	3.9	≥ 420	6.9	–	4.3	–
CCC[C@@H](NC(=O)c1cccc2c1CC(=O)N2)[C@@H](O)c1ccncc1C	1.6	300 (≈ 106 µg/mL)	6.5	–	< 4	–
CCC[C@@H](NC(=O)c1ccnc2[nH]c(=O)[nH]c12)[C@@H](O)c1cccc(Cl)c1C	3.9	200 (≈ 77.8 µg/mL)	8	–	5.5	–
CCC[C@@H](NC(=O)c1cccc2c1CC(=O)N2)[C@@H](O)c1ccccc1CC	4.1	≥ 316	8.3	1.6	6	–
CCC[C@@H](NC(=O)c1cccc2c1CC(=O)N2)[C@@H](O)c1ccccc1OC	3.4	≥ 299	7.8	< 0.8	5.1	–
CCC[C@@H](NC(=O)c1cccc2c1CC(=O)N2)[C@@H](O)c1cnccc1C	1.9	≥ 346	5.9	–	< 4	–
CCC[C@@H](NC(=O)c1cccc2c1CC(=O)N2)[C@@H](O)c1cc(Cl)ccc1C	4.3	≥ 408	8.6	–	5.3	–
CCC[C@@H](NC(=O)c1cccc2[nH]c(=O)[nH]c12)[C@@H](O)c1cccc(Cl)c1C	4.4	307 (≈ 119 µg/mL)	8.5	1.8	6.5	–
